The values below come from paper PMC3827244, “An Ultrasensitive High Throughput Screen for DNA Methyltransferase 1-Targeted Molecular Probes” (PLoS ONE, 2013).

Read-outs that look alike come from different tables or passages of the source.

The target in experiment [1] is T1, DNMT1 (amino acids 621–1616) (Homo sapiens, UniProt P26358).
T1 construct: RFTS-lacking DNMT1, amino acids 621–1616; made in house
Nature of the experiment: Detergent test, endonuclease-coupled DNA methylation assay. The class given is biochemical. To be noted: 5 µM compound. The text has this:
The effect of detergent on observed DNMT1 inhibition was examined using the endonuclease-coupled DNA methylation assay. […] A control containing GlaI in the absence of DNMT1 was subtracted from each assay condition. Corrected assay traces were fitted in Prism.

The next experiment deals with HepG2 cells. Set-up: method as in PMID 22939515. To be noted: cited from earlier work.
A further experiment relates to calf thymus DNA. Nature of the experiment: DNA intercalation assay (ethidium bromide displacement). The class given is binding. To be noted: 10 µM compound, 15 µg/ml ctDNA, 1.5 µM ethidium bromide; DMSO 2370 ± 190. The procedure: DNA intercalation was assessed by examining the ability of the compounds to displace ethidium bromide from calf thymus DNA (ctDNA; Sigma). Duplicate assays (100 µl) were conducted in black 96 well plates and contained 15 µg/ml ctDNA, 1.5 µM ethidium bromide and 10 µM compound in methylation assay buffer. DMSO was used as a negative control and daunorubicin (Sigma) was used as a positive control. Fluorescence was measured using excitation and emission wavelengths of 320 nm and 600 nm, respectively.

Experiment [2] addresses T1, DNMT1 (amino acids 621–1616). Description: Differential scanning fluorimetry (DSF) assay. The class given is binding. To be noted: 100 µM compound; for Tm: 2 µM DNMT1, no DNA or SAM, DMSO 46.5 ± 0.1; for ∆Tm: shift versus DMSO control. How it is done: DSF [32] was used to assess the ability of the validated inhibitors to bind directly to DNMT1 in the absence of DNA and SAM and alter the observed melting temperature (Tm). Assays (25 µl) were conducted in triplicate in a Bio-Rad C1000 Thermal Cycler – CFX Real-Time System using the FRET channel and contained 50 mM HEPES pH 7.5, 150 mM NaCl, 2 µM DNMT1 (amino acids 621–1616), 5X Sypro Orange (Invitrogen Molecular Probes), 100 µM compound, and 1% DMSO. A DMSO control assay in the absence of compounds was also examined. Temperature was increased from 25 to 95°C by 0.5°C per minute. Fluorescence traces were exported and analyzed by fitting to the Boltzmann equation in Prism to determine the Tm.

Experiment [3] shares this target. Description: Concentration-dependence (IC50), endonuclease-coupled DNA methylation assay. The class given is biochemical. To be noted: for IC50: 10 µM SAM, 20 nM oligonucleotide 8006, 2 nM DNMT1, 95% confidence interval in brackets. The procedure: IC50 values for each validated direct inhibitor were determined under identical assay conditions (10 µM SAM and 20 nM oligonucleotide 8006) using the endonuclease-coupled DNA methylation assay in triplicate (80 µl) in a 96 well format. Assays contained 0.8 U GlaI, 2 nM DNMT1 (amino acids 621–1616) and 0.94% DMSO with inhibitor concentration varied from 0 to 10 µM. FAM fluorescence was measured in a Biotek Neo plate reader over the course of 45 minutes. A control containing GlaI in the absence of DNMT1 was subtracted from each assay condition. Corrected assay traces were fitted in Prism and percent activity was determined by comparing to a DMSO containing control. IC50 values were determined by fitting the percent activity data using a unity Hill slope in Prism.

In experiment [4] the test system is Rgs6−/− mouse embryonic fibroblasts. The arrangement: method as in PMID 23995786. As to conditions: murine Rgs6−/− mouse embryonic fibroblasts; cited from earlier work.
Another experiment deals with DNMT1. To be noted: cited from earlier work.
Experiment [5] deals with MCF-7 breast cancer cells. To be noted: cited from earlier work.
The mark [6] stands for this setting: absence of 0.01% Triton X-100, read-out: Percent activity, 0.01% Triton X-100 -.
The mark [7] stands for this setting: presence of 0.01% Triton X-100, read-out: Percent activity, 0.01% Triton X-100 +.

T1 sequence (P26358 621-1616): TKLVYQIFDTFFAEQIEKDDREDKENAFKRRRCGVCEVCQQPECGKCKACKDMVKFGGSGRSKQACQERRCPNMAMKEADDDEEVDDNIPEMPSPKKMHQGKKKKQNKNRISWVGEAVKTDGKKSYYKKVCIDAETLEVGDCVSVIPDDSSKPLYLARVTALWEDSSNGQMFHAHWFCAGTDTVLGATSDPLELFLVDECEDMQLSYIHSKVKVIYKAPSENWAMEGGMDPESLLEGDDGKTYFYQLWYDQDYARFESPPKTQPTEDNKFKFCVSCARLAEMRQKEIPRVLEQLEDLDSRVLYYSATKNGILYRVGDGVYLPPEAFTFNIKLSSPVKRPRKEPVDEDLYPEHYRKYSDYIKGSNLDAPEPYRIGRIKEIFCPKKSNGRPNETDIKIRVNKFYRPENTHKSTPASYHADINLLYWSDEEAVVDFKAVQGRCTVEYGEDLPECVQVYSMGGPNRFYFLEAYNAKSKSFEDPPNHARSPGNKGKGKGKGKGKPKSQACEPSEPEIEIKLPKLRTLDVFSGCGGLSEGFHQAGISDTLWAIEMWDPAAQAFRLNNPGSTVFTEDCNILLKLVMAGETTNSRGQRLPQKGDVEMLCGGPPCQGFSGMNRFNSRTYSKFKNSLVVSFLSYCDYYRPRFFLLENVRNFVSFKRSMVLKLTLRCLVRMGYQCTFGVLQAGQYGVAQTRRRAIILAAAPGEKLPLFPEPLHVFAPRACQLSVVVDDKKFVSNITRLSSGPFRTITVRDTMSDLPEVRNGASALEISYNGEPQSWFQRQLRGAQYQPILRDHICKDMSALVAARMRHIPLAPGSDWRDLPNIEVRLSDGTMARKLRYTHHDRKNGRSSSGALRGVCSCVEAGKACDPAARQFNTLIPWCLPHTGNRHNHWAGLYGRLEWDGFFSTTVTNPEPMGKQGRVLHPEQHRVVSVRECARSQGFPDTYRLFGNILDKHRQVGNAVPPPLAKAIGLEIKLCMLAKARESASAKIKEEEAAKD

On to `Oc1cc(Cl)ccc1Oc1ccc(Cl)cc1Cl` [Cmpd 13, triclosan], for which the remaining activity at 5 µM amounted to 52% in experiment [1] (setting [6]) and 48% in experiment [1] (setting [7]). Moreover, the “levels of DNA methylation” value in the experiment on HepG2 cells was “reduced the levels of DNA methylation”. Also, the “RFU (ethidium bromide fluorescence)” value in the experiment with calf thymus DNA was found to be 2406 ± 5 RFU. For the same compound, the Tm in experiment [2] was 47.5 ± 0.1 ºC. The “∆Tm” value in experiment [2] is on record as “+1.0 ºC”.
For `O=C(O)c1cc(O)c2c(c1)[C@@H]([C@H]1c3cc(C(=O)O)cc(O)c3C(=O)c3c(O[C@H]4O[C@H](CO)[C@@H](O)[C@H](O)[C@H]4O)cccc31)c1cccc(O[C@H]3O[C@H](CO)[C@@H](O)[C@H](O)[C@H]3O)c1C2=O` [Cmpd 22], the remaining activity at 5 µM was determined as 7% in experiment [1] (setting [6]) and 9% in experiment [1] (setting [7]). For the same compound, the IC50 in experiment [3] was found to be 470 nM. In addition, the “RFU (ethidium bromide fluorescence)” value in the experiment on calf thymus DNA was 2415 ± 150 RFU. Further, the Tm in experiment [2] is 47.5 ± 0.1 ºC. Moreover, the “∆Tm” value in experiment [2] is “+1.0 ºC”.
For the compound `CC1/C=C/C=C/C=C/C=C/C=C/C=C/C=C/C(O[C@@H]2O[C@H](C)[C@H](O)[C@@H](O)[C@@H]2N)CC(O)C(C(=O)O)C(O)CC(=O)CC(O)CC(O)CC(O)CC(=O)CCCC(=O)CC(=O)OC1C(C)CC(C)C(O)CC(=O)c1ccc(N)cc1` (stereo partly shown) [Cmpd 24], the remaining activity at 5 µM in experiment [1] (setting [6]) was 0%. The remaining activity at 5 µM in experiment [1] (setting [7]) came out at 0%. For the same compound, the IC50 in experiment [3] worked out at 400 nM. Further, in the experiment with calf thymus DNA, the “RFU (ethidium bromide fluorescence)” value is listed as 2389 ± 64 RFU. In experiment [2], the Tm was 47.5 ± 0.1 ºC and the “∆Tm” value is “+1.0 ºC”.
With `O=C1c2ccccc2C(=O)c2c1ccc(O)c2O` [Cmpd 26, alizarin], the values for the remaining activity at 5 µM in experiment [1] (setting [6]) and in experiment [1] (setting [7]) were 67% and 63%, respectively. Besides, the “RFU (ethidium bromide fluorescence)” value in the experiment on calf thymus DNA was found to be 2364 ± 30 RFU. Besides, in experiment [2], the Tm is 48.5 ± 0.1 ºC. For the same compound, the “∆Tm” value in experiment [2] is given as “+2.0 ºC”.
With `CSc1nc2cc(Cl)c(Oc3cccc(Cl)c3Cl)cc2[nH]1` [Cmpd 29, triclabendazole], the figures for the remaining activity at 5 µM in experiment [1] (setting [6]) and in experiment [1] (setting [7]) were 52% and 46%, respectively. Moreover, the “RFU (ethidium bromide fluorescence)” value in the experiment with calf thymus DNA is on record as 2500 ± 144 RFU. In experiment [2], the Tm is 48.3 ± 0.1 ºC. The “∆Tm” value in experiment [2] is listed as “+1.8 ºC”.
Regarding `O=c1c(O)c(-c2ccc(O)c(O)c2)oc2c(O)c(O)cc(O)c12` [Cmpd 33], the results for the remaining activity at 5 µM in experiment [1] (setting [6]) and in experiment [1] (setting [7]) were 53% and 47%, respectively. For the same compound, the “RFU (ethidium bromide fluorescence)” value in the experiment with calf thymus DNA stood at 2524 ± 45 RFU. Moreover, in experiment [2], the Tm is on record as 64.4 ± 0.2 ºC. Further, the “∆Tm” value in experiment [2] is recorded as “+17.9 ºC”.
Regarding `O=C(O)c1cc(O)c2c(c1)[C@@H]([C@@H]1c3cc(C(=O)O)cc(O)c3C(=O)c3c(O[C@H]4O[C@H](CO)[C@@H](O)[C@H](O)[C@H]4O)cccc31)c1cccc(O[C@H]3O[C@H](CO)[C@@H](O)[C@H](O)[C@H]3O)c1C2=O` [Cmpd 36], in experiment [1] (setting [6]), the remaining activity at 5 µM amounted to 0%. In experiment [1] (setting [7]), the remaining activity at 5 µM amounted to 0%. The “RFU (ethidium bromide fluorescence)” value with calf thymus DNA is 2309 ± 60 RFU. In experiment [2], the Tm was 47.4 ± 0.1 ºC and the “∆Tm” value is recorded as “+0.9 ºC”.
As for `CC(=O)NCCc1ccc(O)c(-c2c(O)c(O)c3c(c2O)C(=O)c2c(cc(O)c(C(=O)O)c2C(=O)O)C3=O)c1` [Cmpd 40, Laccaic acid A], in experiment [1] (setting [6]), the remaining activity at 5 µM turned out to be 56%. Also, in experiment [1] (setting [7]), the remaining activity at 5 µM came out at 58%. Also, the “DNMT1-dependent oncogenic transformation and apoptosis” value in experiment [4] was “reverses DNMT1-dependent oncogenic transformation and apoptosis”. For the same compound, in experiment [3] (more potent than alizarin), the “potency relative to alizarin (cmpd 26)” value is given as around 5 fold. In addition, in the experiment with calf thymus DNA, the “RFU (ethidium bromide fluorescence)” value was found to be 2311 ± 148 RFU. In experiment [2], the Tm is given as 48.5 ± 0.1 ºC and the “∆Tm” value is “+2.0 ºC”. In the experiment on DNMT1, the mechanism of inhibition entry was “DNA-competitive inhibitor”. Also, the “expression of methylation-silenced genes” value in experiment [5] was “reactivates expression of a set of methylation-silenced genes”.
With `O=C(O)C(S)C(S)C(=O)O` (stereo not shown) [Cmpd 51], the remaining activity at 5 µM in experiment [1] (setting [6]) worked out at 10%. Further, the remaining activity at 5 µM in experiment [1] (setting [7]) turned out to be 8%. Also, the “RFU (ethidium bromide fluorescence)” value in the experiment with calf thymus DNA turned out to be 2525 ± 200 RFU. In addition, in experiment [2], the Tm is recorded as 49.0 ± 0.1 ºC and the “∆Tm” value is recorded as “+2.5 ºC”.
